Several values for one entry are separate records, joined by “and”; a condition that tells them apart may be missing. Equal values may be shown once. Read-outs that look alike come from different tables or passages of the source.
Experiments:
hERG potassium channel = hERG potassium channel (Homo sapiens, UniProt Q12809); assay: Patch-clamp of hERG potassium currents in transfected tsA201 cells; assay type: cell-based
hNav1.4 channels = hNav1.4 channels (Homo sapiens, UniProt P35499); assay: cell-based
rat model of myotonia = assay: In vivo antimyotonic activity, time of righting reflex
hNav1.4 - F1586C = hNav1.4 - F1586C (Homo sapiens, UniProt P35499, F1586C); conditions: ref Desaphy et al., 2012, cited from earlier work
hNav1.4 – WT = hNav1.4 – WT (Homo sapiens, UniProt P35499); conditions: cited from earlier work; for 0.1-to-10 Hz ratio: ratio of IC50 values
[1] = humans; ref Lalka et al., 1976; cited from earlier work
HeLa = conditions: 100 μM; ref Ghelardini et al., 2010; cited from earlier work
[2] = system: murine C2C12 skeletal muscle cells; assay: In vitro cytotoxicity, CCK-8 cell viability; assay type: cell-based; conditions: C2C12, 6 h, from 100 μM to 1 mM
MRC-5 = conditions: 100 μM; ref Ghelardini et al., 2010; cited from earlier work
[3] = current at end of first voltage step

Chain of hNav1.4 – WT (P35499 whole entry): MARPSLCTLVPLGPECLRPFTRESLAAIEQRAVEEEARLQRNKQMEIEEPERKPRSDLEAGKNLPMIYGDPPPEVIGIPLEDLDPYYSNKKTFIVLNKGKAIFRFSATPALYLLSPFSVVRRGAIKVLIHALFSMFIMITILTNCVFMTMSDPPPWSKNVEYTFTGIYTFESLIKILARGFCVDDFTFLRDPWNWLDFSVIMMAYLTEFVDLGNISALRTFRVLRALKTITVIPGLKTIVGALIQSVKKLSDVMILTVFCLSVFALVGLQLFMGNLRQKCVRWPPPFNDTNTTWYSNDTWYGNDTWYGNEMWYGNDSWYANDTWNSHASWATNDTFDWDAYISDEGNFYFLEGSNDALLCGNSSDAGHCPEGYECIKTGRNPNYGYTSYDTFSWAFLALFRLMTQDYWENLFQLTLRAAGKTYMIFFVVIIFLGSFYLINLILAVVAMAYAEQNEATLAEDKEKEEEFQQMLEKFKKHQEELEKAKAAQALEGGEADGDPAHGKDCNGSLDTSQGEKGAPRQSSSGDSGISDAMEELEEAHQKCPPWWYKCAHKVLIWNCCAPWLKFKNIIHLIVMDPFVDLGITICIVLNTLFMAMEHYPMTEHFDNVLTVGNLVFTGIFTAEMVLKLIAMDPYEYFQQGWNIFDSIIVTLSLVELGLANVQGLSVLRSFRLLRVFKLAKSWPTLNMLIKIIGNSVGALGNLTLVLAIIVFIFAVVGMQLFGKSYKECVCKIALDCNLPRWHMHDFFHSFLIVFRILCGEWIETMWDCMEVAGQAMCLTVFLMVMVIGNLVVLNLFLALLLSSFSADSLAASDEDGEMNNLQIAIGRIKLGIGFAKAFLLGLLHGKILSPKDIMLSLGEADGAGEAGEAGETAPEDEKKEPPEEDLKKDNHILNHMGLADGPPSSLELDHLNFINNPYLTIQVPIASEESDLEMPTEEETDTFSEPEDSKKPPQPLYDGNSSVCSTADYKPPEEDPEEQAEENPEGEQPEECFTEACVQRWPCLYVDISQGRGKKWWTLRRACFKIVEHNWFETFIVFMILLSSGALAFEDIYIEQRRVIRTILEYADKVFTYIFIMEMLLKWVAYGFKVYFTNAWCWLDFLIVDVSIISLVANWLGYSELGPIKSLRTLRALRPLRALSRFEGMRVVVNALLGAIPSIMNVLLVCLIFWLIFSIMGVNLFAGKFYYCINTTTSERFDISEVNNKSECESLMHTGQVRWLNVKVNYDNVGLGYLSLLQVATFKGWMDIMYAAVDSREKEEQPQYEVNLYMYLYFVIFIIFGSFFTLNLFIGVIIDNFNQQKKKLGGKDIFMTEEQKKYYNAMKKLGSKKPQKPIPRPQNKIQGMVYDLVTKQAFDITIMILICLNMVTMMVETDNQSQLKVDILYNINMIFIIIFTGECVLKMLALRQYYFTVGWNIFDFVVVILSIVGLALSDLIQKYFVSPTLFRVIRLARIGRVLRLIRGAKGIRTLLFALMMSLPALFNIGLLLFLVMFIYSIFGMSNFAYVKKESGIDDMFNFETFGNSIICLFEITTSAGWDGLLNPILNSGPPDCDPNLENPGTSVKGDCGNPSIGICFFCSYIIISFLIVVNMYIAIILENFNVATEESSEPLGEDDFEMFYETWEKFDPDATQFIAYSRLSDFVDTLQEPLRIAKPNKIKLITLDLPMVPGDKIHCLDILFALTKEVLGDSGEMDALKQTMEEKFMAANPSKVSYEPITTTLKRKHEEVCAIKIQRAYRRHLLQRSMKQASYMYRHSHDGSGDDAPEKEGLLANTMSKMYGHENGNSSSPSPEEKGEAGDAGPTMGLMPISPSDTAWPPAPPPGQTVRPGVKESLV
Chain of hNav1.4 channels (P35499 whole entry): as above
Chain of hERG potassium channel (Q12809 whole entry): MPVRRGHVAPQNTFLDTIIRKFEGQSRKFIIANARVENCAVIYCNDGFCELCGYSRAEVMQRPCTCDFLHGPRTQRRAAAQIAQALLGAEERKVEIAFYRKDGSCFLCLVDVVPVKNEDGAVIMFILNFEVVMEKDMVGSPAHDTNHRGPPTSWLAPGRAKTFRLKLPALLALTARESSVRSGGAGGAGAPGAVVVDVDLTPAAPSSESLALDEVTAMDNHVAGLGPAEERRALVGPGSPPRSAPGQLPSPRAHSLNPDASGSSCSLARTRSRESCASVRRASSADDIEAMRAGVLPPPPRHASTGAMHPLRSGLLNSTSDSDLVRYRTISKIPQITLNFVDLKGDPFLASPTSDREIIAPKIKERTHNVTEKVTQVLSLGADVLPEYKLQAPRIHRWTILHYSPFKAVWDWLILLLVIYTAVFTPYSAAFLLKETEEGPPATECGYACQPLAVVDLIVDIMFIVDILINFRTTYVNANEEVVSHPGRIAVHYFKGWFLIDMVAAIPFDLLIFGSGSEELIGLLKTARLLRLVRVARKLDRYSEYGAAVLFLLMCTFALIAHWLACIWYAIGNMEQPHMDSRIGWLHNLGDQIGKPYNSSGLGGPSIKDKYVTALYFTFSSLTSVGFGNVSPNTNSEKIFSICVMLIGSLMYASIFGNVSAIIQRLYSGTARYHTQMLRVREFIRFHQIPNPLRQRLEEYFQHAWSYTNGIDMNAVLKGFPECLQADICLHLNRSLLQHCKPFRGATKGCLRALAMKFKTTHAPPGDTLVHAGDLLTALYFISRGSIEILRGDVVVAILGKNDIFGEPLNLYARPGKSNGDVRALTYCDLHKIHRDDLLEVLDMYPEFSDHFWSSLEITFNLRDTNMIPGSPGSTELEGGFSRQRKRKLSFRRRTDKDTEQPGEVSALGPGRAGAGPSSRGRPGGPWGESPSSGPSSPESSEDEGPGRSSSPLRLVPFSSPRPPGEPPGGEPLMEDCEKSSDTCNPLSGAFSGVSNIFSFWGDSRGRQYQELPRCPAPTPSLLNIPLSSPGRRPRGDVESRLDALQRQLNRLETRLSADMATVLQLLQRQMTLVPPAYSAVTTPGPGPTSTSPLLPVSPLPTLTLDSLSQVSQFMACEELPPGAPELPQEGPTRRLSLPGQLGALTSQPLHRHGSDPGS
Chain of hNav1.4 - F1586C (P35499 whole entry F1586C): as the sequence (P35499 whole entry) above, with F1586C counted along it

**Q.** Which “concentration at which inhibition of hERG currents was complete” value (hERG potassium channel; [3]) does the source give for `Cc1cccc(C)c1OCC(C)N` (stereo not drawn) [Mexiletine, mexiletine] here?
**A.** Its value is 1000 µM.

**Q.** What about the “concentrations at which inhibition of hERG currents was observed” value (hERG potassium channel; [3]) of the same compound?
**A.** Its value is “greater than 1 μM”.

**Q.** What about the IC50 (hERG potassium channel; hERG IC50, tail currents at −50 mV after test depolarization at −10 mV) of the same compound?
**A.** The IC50 was 43 µM.

**Q.** What about the “ratio between hERG and hNav1.4 (myotonia-like condition) IC50” value (hERG potassium channel; hERG IC50 versus hNav1.4 IC50 at 50 Hz) of the same compound?
**A.** The value was 2.5 fold.

**Q.** What about the “hERG nH” value (hERG potassium channel; tail currents, Hill slope factor) of the same compound?
**A.** The value was 0.79 ± 0.07.

**Q.** And the “In vitro nH” value (hNav1.4 channels)?
**A.** The value was 1.2 ± 0.2.

**Q.** What about the IC50 (hNav1.4 channels; In vitro IC50) of the same compound?
**A.** Its IC50 is 17 µM and 16.9 µM.

**Q.** What about the “In vivo Min” value (rat model of myotonia; minimal TRR value of the dose-response fit) of the same compound?
**A.** The value was 18.0 ± 7.3%.

**Q.** And the “maximal TRR reduction” value (rat model of myotonia; oral, from dose-response fit)?
**A.** The value was about 80%.

**Q.** What about the “Tonic block (0.1 Hz) nH” value (hNav1.4 - F1586C; 0.1 Hz) of the same compound?
**A.** The value was 1.1 ± 0.1.

**Q.** And the “Phasic block (10 Hz) nH” value (hNav1.4 - F1586C; 10 Hz)?
**A.** Its value is 1.0 ± 0.2.

**Q.** And the “0.1-to-10 Hz ratio” value (hNav1.4 - F1586C; ratio of IC50 values)?
**A.** Its value is 1.2.

**Q.** What about the “Tonic block (0.1 Hz) nH” value (hNav1.4 – WT; ref Desaphy et al., 2012) of the same compound?
**A.** Its value is 0.9 ± 0.1.

**Q.** And the “Phasic block (10 Hz) nH” value (hNav1.4 – WT; ref Desaphy et al., 2012)?
**A.** Its value is 0.8 ± 0.1.

**Q.** And the “0.1-to-10 Hz ratio” value (hNav1.4 – WT; ref Desaphy et al., 2012)?
**A.** Its value is 10.3.

**Q.** What about the IC50 (hNav1.4 – WT; read-out: Phasic block (10 Hz) IC50, 10 Hz, ref Desaphy et al., 2012) of the same compound?
**A.** The IC50 was 24 ± 2 µM.

**Q.** Which oral bioavailability [1] does the source give for `Cc1cccc(C)c1NC(=O)C(C)N` (stereo not drawn) [Tocainide, tocainide] here?
**A.** Its oral bioavailability is about 100%.

**Q.** And the plasma protein bound [1]?
**A.** The plasma protein bound was about 50%.

**Q.** What about the HeLa cell viability (HeLa) of the same compound?
**A.** Its HeLa cell viability is “reduction”.

**Q.** What about the “reduction of cell viability” value [2] of the same compound?
**A.** Its value is “about 20%”.

**Q.** What about the MRC-5 cell viability (MRC-5) of the same compound?
**A.** Its MRC-5 cell viability is “reduction”.

**Q.** And the “Tonic block (0.1 Hz) nH” value (hNav1.4 – WT; ref Ghelardini et al., 2010)?
**A.** The value was 1.0 ± 0.1.

**Q.** What about the “Phasic block (10 Hz) nH” value (hNav1.4 – WT; ref Ghelardini et al., 2010) of the same compound?
**A.** The value was 1.1 ± 0.2.

**Q.** What about the “0.1-to-10 Hz ratio” value (hNav1.4 – WT; ref Ghelardini et al., 2010) of the same compound?
**A.** The value was 3.8.
